Measurements: US20250360167A1 (Keryx Biopharmaceuticals, Inc., priority 2013, published 2025)

Columns and labels:
Assay type in all cases: in vivo, human
[1] = system: serum phosphorus; test: Phase 3 trial (Example 1), four-week placebo-controlled Efficacy Assessment Period: serum phosphorus; settings: for Serum Phosphorus, Mean / Serum Phosphorus, Median: Efficacy Assessment Period; for Serum Phosphorus, Mean / Serum Phosphorus, Median / Serum Phosphorus, LS Mean / Serum Phosphorus, Treatment Differences, LS Mean (KRX-0502) − LS Mean (Placebo), (SE) / Serum Phosphorus, Change from Baseline, Mean / Serum Phosphorus, Change from Baseline, Median: Table 14; for Serum Phosphorus, Change from Baseline, Mean / Serum Phosphorus, Change from Baseline, Median: Week-52 baseline
Text: (§1) This trial was a three-period, multicenter, safety and efficacy clinical trial.
Period 3 (Efficacy Assessment Period). Following the Safety Assessment Period, those patients randomized to treatment with ferric citrate entered a four-week, randomized, open-label, placebo-controlled Efficacy Assessment Period.
(§2) Serum phosphorus and calcium were checked at Visit 5 (Week 1), and every two weeks during the first 12 weeks after Visit 4 (Randomization Visit), and monthly for the rest of the Safety Assessment Period. During the Efficacy Assessment Period, serum phosphorus and calcium were drawn weekly. These values guided study drug administration. While on study drug, the use of other phosphate binders was not permitted. […] The titration of calcium acetate and sevelamer carbonate throughout the 52-week Safety Assessment Period were according to the current package inserts for these agents and/or at the discretion of the site PI.
(§3) Serum phosphorus and calcium were performed at Screening (Visit 0); weekly during the Washout Period after Visit 1 (Week −2); at Visit 4 (Randomization Visit); at Visits 5 (Week 1), 6 (Week 2), 7 (Week 4), 8 (Week 6), 9 (Week 8), 10 (Week 10), 11 (Week 12), 12 (Week 16), 13 (Week 20), 14 (Week 24), 15 (Week 28), 16 (Week 32), 17 (Week 36), 18 (Week 40), 19 (Week 44), 20 (Week 48), and 21 (Week 52) of the 52-week Safety Assessment Period; and at Visits 22 (Week 53), 23 (Week 54), 24 (Week 55) and 25 (Week 56) of the Efficacy Assessment Period.
There were two unique and distinct baseline assessments. The baseline for the Safety Assessment Period was the Randomization Visit (Visit 4) and was defined as “Week-O-baseline.” The baseline for the Efficacy Assessment Period was the last visit of the Safety Assessment Period (Visit 21, Week 52) and was defined as “study-baseline.”
The primary efficacy variable was analyzed via an ANCOVA model with treatment as the fixed effect and study-baseline as the covariate. Between-treatment differences were estimated and two-sided 95% confidence intervals for the differences were presented.

[2] = Phase 2 trial (Example 2): safety and tolerability
Experimental: The safety population in the study included all randomized patients who took at least one dose of study drug.
Serious adverse events occurred in six KRX-0502 subjects (8%) versus ten placebo subjects (14%). Two deaths were recorded in the study, both from the placebo group.

[3] = system: serum phosphorus; test: Phase 3 trial in ESRD patients on dialysis (Example 1), 52-week Safety Assessment Period: serum phosphorus vs active control; settings: for Mean Serum Phosphorus / Mean Serum Phosphorus, % Change from Baseline / Mean Serum Phosphorus, Change from Baseline: Table B; for Serum Phosphorus, Mean / Serum Phosphorus, Median: Safety Assessment Period; for Serum Phosphorus, Mean / Serum Phosphorus, Median / Serum Phosphorus, LS Mean / Serum Phosphorus, Change from Baseline, Mean / Serum Phosphorus, Change from Baseline, Median / Serum Phosphorus, Treatment Differences, LS Mean (KRX-0502) − LS Mean (control): Table 13; for Serum Phosphorus, Change from Baseline, Mean / Serum Phosphorus, Change from Baseline, Median: Day 0 baseline
Experimental: as §1
Period 2 (Safety Assessment Period). […] Patients were followed on their randomized assignment for safety assessments over 52 weeks.
For patients randomized to the active-control group, the starting dose of phosphate binder was the last dose that was administered immediately prior to the start of the Washout Period (if the patient remained on the same phosphate binder) or at the discretion of the PI, guided by the package insert, if the patient changed binders. However, for patients whose previous dose of phosphate binder exceeded 12 pills/day, if randomized to the active-control group, their starting dose of active-control drug was at the discretion of the PI, but will not exceed 12 pills/day. Calcium acetate 667 mg capsules and sevelamer carbonate 800 mg tablets were used and were supplied by Keryx Biopharmaceuticals, Inc. (Keryx) for the duration of the trial.
as §2, §3
The efficacy analyses were based on Full Analysis (FA) population that consisted of all patients who took at least one dose of study medication and provided baseline and at least one post-baseline efficacy assessment. The safety analyses were based on safety population that was consistent of all patients who took at least one dose of study medication.
• 1. Change in serum phosphorus concentration at Weeks 12, 24, 36, 48, and 52 as compared to baseline (Visit 4). This variable will be analyzed using LOCF methodology. ANCOVA will be employed. The model will include treatment (fixed effect), and baseline (covariate).

iron (+3), x (1, 2, 3-propanetricarboxylic acid, 2-hydroxy-), y (H2O) [KRX-0502]
Mean Serum Phosphorus ([1]; End of Treatment (Week 56), LOCF, Table A): 4.9 mg/dL | Serum Phosphorus, Mean ([1]; Week 52 Baseline): 5.16 | Serum Phosphorus, Median ([1]; Week 52 Baseline): 5.10 | Serum Phosphorus, LS Mean ([1]; Week 53, ANCOVA): 4.92 | Serum Phosphorus, Mean ([1]; Week 53): 4.90 | Serum Phosphorus, Median ([1]; Week 53): 4.95 | Serum Phosphorus, Treatment Differences, LS Mean (KRX-0502) − LS Mean (Placebo), (SE) ([1]; Week 53): −1.73 (0.21) | Serum Phosphorus, Change from Baseline, Mean ([1]; Week 53): −0.31 | Serum Phosphorus, Change from Baseline, Median ([1]; Week 53): −0.30 | Serum Phosphorus, LS Mean ([1]; Week 54, ANCOVA): 4.80 | Serum Phosphorus, Mean ([1]; Week 54): 4.78 | Serum Phosphorus, Median ([1]; Week 54): 4.70 | Serum Phosphorus, Treatment Differences, LS Mean (KRX-0502) − LS Mean (Placebo), (SE) ([1]; Week 54): −2.08 (0.22) | Serum Phosphorus, Change from Baseline, Mean ([1]; Week 54): −0.36 | Serum Phosphorus, Change from Baseline, Median ([1]; Week 54): −0.40 | Serum Phosphorus, LS Mean ([1]; Week 55, ANCOVA): 4.76 | Serum Phosphorus, Mean ([1]; Week 55): 4.75 | Serum Phosphorus, Median ([1]; Week 55): 4.60 | Serum Phosphorus, Treatment Differences, LS Mean (KRX-0502) − LS Mean (Placebo), (SE) ([1]; Week 55): −2.18 (0.23) | Serum Phosphorus, Change from Baseline, Mean ([1]; Week 55): −0.41 | Serum Phosphorus, Change from Baseline, Median ([1]; Week 55): −0.50 | Serum Phosphorus, LS Mean ([1]; Week 56, ANCOVA): 4.94 | Mean Serum Phosphorus, Least Squares (LS) Mean Difference from Placebo ([1]; Week 56, ANCOVA, Table A): -2.3 mg/dL | Serum Phosphorus, Mean ([1]; Week 56): 4.92 | Serum Phosphorus, Median ([1]; Week 56): 4.60 | Serum Phosphorus, Treatment Differences, LS Mean (KRX-0502) − LS Mean (Placebo), (SE) ([1]; Week 56): −2.28 (0.23) | Serum Phosphorus, Change from Baseline, Mean ([1]; Week 56): −0.23 | Serum Phosphorus, Change from Baseline, Median ([1]; Week 56): −0.50 | Mean Serum Phosphorus ([1]; baseline Week 52, Table A): 5.2 mg/dL | Mean Serum Phosphorus, Change from Baseline at Week 56 ([1]; baseline Week 52, Table A): -0.3 mg/dL | differences in serum calcium levels and liver enzymes (ALT, AST) ([2]; KRX-0502 vs placebo): no clinically meaningful or statistically significant differences | Serious adverse events, % of subjects ([2]; Phase 2 study): 8% | Serious adverse events, number of subjects ([2]; Phase 2 study): six | study discontinuations due to hypophosphatemia ([2]; Phase 2 study): no study discontinuations due to hypophosphatemia | safety and tolerability ([2]; Phase 2 study, safety population): safe and well-tolerated | discontinuation rates ([2]; including Treatment Failures): 19% | Mean Serum Phosphorus ([3]; Baseline, N = 277): 7.4 mg/dL | Phosphorus, Median ([3]; Baseline, Table 12): 7.20 mg/dL | Phosphorus, Mean ([3]; Baseline, Table 12, vs sevelamer carbonate as a single agent): 7.39 mg/dL | Serum Phosphorus, Mean ([3]; Day 0 Baseline): 7.39 | Serum Phosphorus, Median ([3]; Day 0 Baseline): 7.20 | Phosphorus, Week 12 Change from Baseline, Mean ([3]; Table 12): -2.01 mg/dL | Phosphorus, Week 12 Change from Baseline, Median ([3]; Table 12): -2.00 mg/dL | Phosphorus, LS Mean ([3]; Week 12, ANCOVA, Day-0 baseline covariate, Table 12): 5.38 mg/dL | Serum Phosphorus, LS Mean ([3]; Week 12, ANCOVA): 5.39 | Serum Phosphorus, Change from Baseline, Mean ([3]; Week 12): −2.01 | Serum Phosphorus, Change from Baseline, Median ([3]; Week 12): −2.00 | Mean Serum Phosphorus ([3]; Week 12, LOCF): 5.4 mg/dL | Serum Phosphorus, Mean ([3]; Week 12): 5.38 | Serum Phosphorus, Median ([3]; Week 12): 5.10 | Phosphorus, Mean ([3]; Week 12, Table 12): 5.38 mg/dL | Phosphorus, Median ([3]; Week 12, Table 12): 5.10 mg/dL | Serum Phosphorus, Treatment Differences, LS Mean (KRX-0502) − LS Mean (control) ([3]; Week 12): 0.07 | Mean Serum Phosphorus, % Change from Baseline ([3]; Week 12): −27% | Mean Serum Phosphorus, Change from Baseline ([3]; Week 12): -2.0 mg/dL | Phosphorus, Treatment Differences, LS Mean (KRX-0502) − LS Mean (Control) ([3]; Week 12, control = sevelamer carbonate as a single agent): 0.16 mg/dL | Serum Phosphorus, LS Mean ([3]; Week 24, ANCOVA): 5.26 | Serum Phosphorus, Change from Baseline, Mean ([3]; Week 24): −2.14 | Serum Phosphorus, Change from Baseline, Median ([3]; Week 24): −2.10 | Mean Serum Phosphorus ([3]; Week 24, LOCF): 5.2 mg/dL | Serum Phosphorus, Mean ([3]; Week 24): 5.24 | Serum Phosphorus, Median ([3]; Week 24): 5.10 | Serum Phosphorus, Treatment Differences, LS Mean (KRX-0502) − LS Mean (control) ([3]; Week 24): −0.21 | Mean Serum Phosphorus, % Change from Baseline ([3]; Week 24): −30% | Mean Serum Phosphorus, Change from Baseline ([3]; Week 24): -2.2 mg/dL | Serum Phosphorus, LS Mean ([3]; Week 36, ANCOVA): 5.24 | Serum Phosphorus, Change from Baseline, Mean ([3]; Week 36): −2.16 | Serum Phosphorus, Change from Baseline, Median ([3]; Week 36): −2.10 | Mean Serum Phosphorus ([3]; Week 36, LOCF): 5.2 mg/dL | Serum Phosphorus, Mean ([3]; Week 36): 5.22 | Serum Phosphorus, Median ([3]; Week 36): 5.10 | Serum Phosphorus, Treatment Differences, LS Mean (KRX-0502) − LS Mean (control) ([3]; Week 36): −0.05 | Mean Serum Phosphorus, % Change from Baseline ([3]; Week 36): −30% | Mean Serum Phosphorus, Change from Baseline ([3]; Week 36): -2.2 mg/dL | Serum Phosphorus, LS Mean ([3]; Week 48, ANCOVA): 5.33 | Serum Phosphorus, Change from Baseline, Mean ([3]; Week 48): −2.07 | Serum Phosphorus, Change from Baseline, Median ([3]; Week 48): −2.10 | Mean Serum Phosphorus ([3]; Week 48, LOCF): 5.3 mg/dL | Serum Phosphorus, Mean ([3]; Week 48): 5.32 | Serum Phosphorus, Median ([3]; Week 48): 5.20 | Serum Phosphorus, Treatment Differences, LS Mean (KRX-0502) − LS Mean (control) ([3]; Week 48): −0.12 | Mean Serum Phosphorus, % Change from Baseline ([3]; Week 48): −28% | Mean Serum Phosphorus, Change from Baseline ([3]; Week 48): -2.1 mg/dL | Serum Phosphorus, LS Mean ([3]; Week 52, ANCOVA): 5.33 | Serum Phosphorus, Change from Baseline, Mean ([3]; Week 52): −2.06 | Serum Phosphorus, Change from Baseline, Median ([3]; Week 52): −2.20 | Mean Serum Phosphorus ([3]; Week 52, LOCF): 5.3 mg/dL | Serum Phosphorus, Mean ([3]; Week 52): 5.32 | Serum Phosphorus, Median ([3]; Week 52): 5.20 | Serum Phosphorus, Treatment Differences, LS Mean (KRX-0502) − LS Mean (control) ([3]; Week 52): −0.01 | Mean Serum Phosphorus, % Change from Baseline ([3]; Week 52): −28% | Mean Serum Phosphorus, Change from Baseline ([3]; Week 52): -2.1 mg/dL
